Reference: ChEMBL document CHEMBL3045274, “Xyloccensins QV, six new 8,9,30-phragmalin ortho ester antifeedants from the Chinese mangrove Xylocarpus granatum” (Tetrahedron, 2005)
Calls of active or inactive are those of the source. No cut-off for these calls is given here.

Test system: Mythimna separata
Test: Antifeedant activity against third instar larvae of Mythimna separata (Oriental armyworm) in compound treated leaf disk at 500 ppm
Assay type: functional, organism-based

**Q.** COC(=O)C[C@@H]1[C@@]2(C)C[C@@]3(O)[C@@](O)([C@@H]2OC(C)=O)[C@@H]2O[C@]4(C)O[C@]5(C[C@@H](OC(C)=O)[C@@]6(C)C(=CC(=O)O[C@@H]6c6ccoc6)[C@]25O4)[C@@]13C was tested. Which Activity did it give?
**A.** Its Activity is “inactive”.

**Q.** With COC(=O)[C@@H](O)[C@@H]1[C@@]2(C)C[C@@]3(O)[C@H]([C@H]4O[C@]5(C)O[C@]6(C[C@@H](OC(C)=O)[C@@]7(C)C(=CC(=O)O[C@@H]7c7ccoc7)[C@]46O5)[C@@]13C)[C@@H]2OC(C)=O as the molecule, how does the Activity read?
**A.** Its Activity is “inactive”.

**Q.** Which Activity does the source give for COC(=O)[C@@H](OC(C)=O)[C@@H]1[C@@]2(C)C[C@@]3(O)[C@@](O)([C@@H]2OC(C)=O)[C@@H]2O[C@]4(C)O[C@]5(C[C@@H](OC(C)=O)[C@@]6(C)C(=CC(=O)O[C@@H]6c6ccoc6)[C@]25O4)[C@@]13C here?
**A.** Its Activity is “Active”.

**Q.** Which Activity does the source give for COC(=O)[C@@H](O)[C@@H]1[C@@]2(C)C[C@@]3(O)[C@@](O)([C@@H]2OC(C)=O)[C@@H]2O[C@]4(C)O[C@]5(C[C@@H](OC(C)=O)[C@@]6(C)C(=CC(=O)O[C@@H]6c6ccoc6)[C@]25O4)[C@@]13C here?
**A.** The Activity was “inactive”.

**Q.** Which Activity does the source give for COC(=O)[C@H](OC(C)=O)[C@H]1[C@]2(C)C[C@]3(O)[C@H]([C@H]2OC(C)=O)[C@H]2O[C@@]4(C)O[C@@]5(CC[C@@]6(C)[C@H](c7ccoc7)OC(=O)C[C@@]6(O)[C@@]25O4)[C@]13C here?
**A.** Its Activity is “inactive”.

**Q.** Which Activity does the source give for COC(=O)C[C@@H]1[C@@]2(C)C[C@@]3(O)[C@@](OC(C)=O)([C@@H]2OC(C)=O)[C@@H]2O[C@]4(C)O[C@]5(C[C@@H](OC(C)=O)[C@@]6(C)C(=CC(=O)O[C@@H]6c6ccoc6)[C@]25O4)[C@@]13C here?
**A.** Its Activity is “inactive”.

**Q.** For COC(=O)[C@H](OC(C)=O)[C@H]1[C@]2(C)C[C@]3(O)[C@@](OC(C)=O)([C@H]4O[C@@]5(C)O[C@@]6(CC[C@@]7(C)[C@H](c8ccoc8)OC(=O)C[C@@]7(O)[C@@]46O5)[C@]13C)[C@H]2OC(C)=O, which Activity is on record?
**A.** Its Activity is “Active”.

**Q.** Which Activity does the source give for COC(=O)[C@@H](O)[C@@H]1[C@@]2(C)C[C@@]3(O)[C@@](OC(C)=O)([C@@H]2OC(C)=O)[C@@H]2O[C@]4(C)O[C@]5(C[C@@H](OC(C)=O)[C@@]6(C)C(=CC(=O)O[C@@H]6c6ccoc6)[C@]25O4)[C@@]13C here?
**A.** Its Activity is “inactive”.
